Assay results as given in patent US9988381B2, “Five-member-heterocycle fused pyridine compounds, method of producing the same, and use thereof” (SHANGHAI INSTITUTE OF MATERIA MEDICA, CHINESE ACADEMY OF …, priority 2013, dated 2018).
Like-named read-outs stand apart in the source and are kept apart here.

Tests used:
[1] = biological target: T1, c-Met kinase domain recombinant protein (Homo sapiens, UniProt P08581); assay: biochemical; conditions: for inhibition at 0.1 µM: read-out: Average inhibition rate at 0.1 μM (%); for inhibition at 1 µM: read-out: Average inhibition rate at 1 μM (%); for inhibition at 10 µM: read-out: Average inhibition rate at 10 μM (%)
T1 construct: 50 μL diluted solution of c-Met kinase domain recombinant protein in reaction buffer was added to initiate the reaction
Description: (§1) Enzymatic reaction substrate Poly(Glu,Tyr)4:1 was diluted to 20 μg/mL in potassium ion free PBS (10 mM sodium phosphate buffer, 150 mM NaCl, pH7.2-7.4), microplate was coated with this solution at 125 μL per well, and reacted at 37° C. for 12-16 hours. Liquid in wells was discarded, then the plate was washed 3 times for 5 minutes each with 200 μL per well of T-PBS (PBS containing 0.1% Tween-20).
Into each well was added 50 μL diluted ATP solution in reaction buffer (50 mM HEPES pH 7.4, 50 mM MgCl2, 0.5 mM MnCl2, 0.2 mM Na3VO4, 1 mM DTT), the final concentration was 5 μM. Test compound was diluted in DMSO to proper concentration, added at 1 μL per well or corresponding level of DMSO (negative control wells), then 49 μL diluted solution of c-Met kinase domain recombinant protein in reaction buffer was added to initiate the reaction, each test was setup with two wells of ATP free control. Reaction was performed in a 37° C. shaker (100 rpm) for 1 hour. The plate was washed three times with T-PBS. Primary antibody PY99 diluted solution was added at 100 μL per well, incubated in a 37° C. shaker for 0.5 hour.
The plate was washed three times with T-PBS. Goat anti mouse secondary antibody labeled with horseradish peroxidase was added at 100 μL per well, incubated in a 37° C. shaker for 0.5 hour. The plate was washed three times with T-PBS. […] Reaction was terminated by adding 50 μL per well of 2M H2SO4, the plate was read at 490 nm using a SPECTRA MAX 190 microplate reader with tunable wavelength.
(§2) Inhibition rate of the sample was calculated using the following equation: […]
IC50 was calculated by fitting the data for a four parameter fit using inhibition curve.

[2] = biological target: T1, c-Met kinase domain recombinant protein; assay: biochemical; conditions: read-out: Inhibition rate at 10 μM (%)
Description: as §1, with “discarded. Plate washing:” for “discarded, then”, “(potassium ion free PBS” for “(PBS”
Into each well was added 49 μL diluted ATP solution in reaction buffer (50 mM HEPES pH 7.4, 50 mM MgCl2, 0.5 mM MnCl2, 0.2 mM Na3VO4, 1 mM DTT), and 1 μL per well of compound to be tested was added, then 50 μL diluted solution of c-Met kinase domain recombinant protein in reaction buffer was added to initiate the reaction, each test was setup with two wells of ATP free control. Reaction was performed in a 37° C. shaker (100 rpm) for 1 hour. Liquid in the wells was discarded, and the plate was washed three times with T-PBS.
Antibody PY99 was added at 100 μL per well (the antibody was 1:500 diluted in T-PBS containing 5 mg/mL BSA), incubated in a 37° C. shaker for 0.5 hour. Liquid in the wells was discarded, and the plate was washed three times with T-PBS.
Goat anti mouse secondary antibody labeled with horseradish peroxidase was added at 100 μL per well (the antibody was 1:2000 diluted in T-PBS containing 5 mg/mL BSA), incubated in a 37° C. shaker for 0.5 hour. Liquid in the wells was discarded, and the plate was washed three times with T-PBS.
Reaction was terminated by adding 50 μL per well of 2M H2SO4, the plate was read at 490 nm using a VERSAmax microplate reader with tunable wavelength.
as §2

T1 sequence (P08581 1078-1345 limits assumed): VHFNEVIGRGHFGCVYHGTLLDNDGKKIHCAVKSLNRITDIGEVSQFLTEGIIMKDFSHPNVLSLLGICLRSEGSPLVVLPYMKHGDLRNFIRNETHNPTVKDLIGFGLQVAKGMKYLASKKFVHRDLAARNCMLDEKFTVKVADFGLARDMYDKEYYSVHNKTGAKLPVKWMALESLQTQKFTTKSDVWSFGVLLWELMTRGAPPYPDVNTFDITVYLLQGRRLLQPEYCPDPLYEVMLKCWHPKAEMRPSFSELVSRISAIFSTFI

inhibition at 0.1 µM [1]	inhibition at 1 µM [1]	inhibition at 10 µM [1]	inhibition at 10 µM [2]	IC50 [1]	Compound
45.1%	54.6%	68.7%	68.7%	–	CN(C)C(=O)c1ccc(-c2cnc3cnn(S(=O)(=O)c4cnc5ccccn45)c3c2)cc1 [Example 41, 1-(imidazo[1,2-a]pyridine-3-sulfonyl)-6-(4-dimethylaminocarbonylphenyl)-1-H-pyrazolo[4,3-b]pyridine]
45.5%	58.4%	67.5%	67.5%	–	CN(C)c1ccc(-c2cnc3cnn(S(=O)(=O)c4cnc5ccccn45)c3c2)cc1 [Example 42, 1-(imidazo[1,2-a]pyridine-3-sulfonyl)-6-(4-dimethylaminophenyl)-1-H-pyrazolo[4,3-b]pyridine]
23.1%	47.6%	68.7%	58.4%	–	COc1ccc(OC)c(-c2cnc3cnn(S(=O)(=O)c4cnc5ccccn45)c3c2)c1 [Example 43, 1-(imidazo[1,2-a]pyridine-3-sulfonyl)-6-(2,5-dimethoxyphenyl)-1-H-pyrazolo[4,3-b]pyridine]
52.8%	55.7%	57.4%	58.9%	–	O=C(c1ccc(C(F)(F)F)cc1)N1CCC(n2cc(-c3cnc4cnn(S(=O)(=O)c5cnc6ccccn56)c4c3)cn2)CC1 [Example 58, 1-(imidazo[1,2-a]pyridine-3-sulfonyl)-6-{{1-[(1-p-trifluoromethylbenzoyl)-4-piperidinyl]}-4-pyrazolyl}-1-H-pyrazolo[4,3-b]pyridine]
60.8%	65.1%	69.8%	79.3%	–	O=S(=O)(c1cnc2ccc(C(F)(F)F)cn12)n1ncc2ncc(-c3cnn(C4CCNCC4)c3)cc21 [Example 65]
52.3%	57.7%	59.6%	79.9%	–	CC(C)N1CCC(n2cc(-c3cnc4cnn(S(=O)(=O)c5cnc6ccc(C(F)(F)F)cn56)c4c3)cn2)CC1 [Example 69]
–	44.7%	79.3%	68.2%	–	Cn1cc(-c2cnc3cnn(S(=O)(=O)c4cnc5ccc(Br)cn45)c3c2)cn1 [Example 70, 1-[(6-bromo-imidazo[1,2-a]pyridine)-3-sulfonyl]-6-[(1-methyl)-4-pyrazolyl]-1-H-pyrazolo[4,3-b]pyridine]
68.5%	73.4%	83.8%	62%	0.1 ± 0.01 nM	Cn1cc(-c2cnc3cnn(S(=O)(=O)c4cnc5ccc(-c6ccccc6)cn45)c3c2)cn1 [Example 71, 1-[(6-phenyl-imidazo[1,2-a]pyridine)-3-sulfonyl]-6-[(1-methyl)-4-pyrazolyl]-1-H-pyrazolo[4,3-b]pyridine]
–	–	12.1%	> 67.6%	–	Cn1cc(-c2cnc3cnn(S(=O)(=O)c4cnc5ccc(-c6cncnc6)cn45)c3c2)cn1 [Example 74, 1-{[6-(5-pyrimidine)-imidazo[1,2-a]pyridine]-3-sulfonyl}-6-[(1-methyl)-4-pyrazolyl]-1-H-pyrazolo[4,3-b]pyridine]
74.6%	75.6%	83.1%	> 77.3%	–	Cn1cc(-c2cnc3cnn(S(=O)(=O)c4cnc5ccc(-c6ccc(N7CCOCC7)cc6)cn45)c3c2)cn1 [Example 75, 1-{[6-(4-morpholinylphenyl)-imidazo[1,2-a]pyridine]-3-sulfonyl}-6-[(1-methyl)-4-pyrazolyl]-1-H-pyrazolo[4,3-b]pyridine]
55.8%	64.8%	85.5%	> 76.9%	–	Cn1cc(-c2cnc3cnn(S(=O)(=O)c4cnc5ccc(-c6ccc(C(F)(F)F)cc6)cn45)c3c2)cn1 [Example 77, 1-{[6-(4-trifluoromethylphenyl)-imidazo[1,2-a]pyridine]-3-sulfonyl}-6-[(1-methyl)-4-pyrazolyl]-1-H-pyrazolo[4,3-b]pyridine]
64.5%	69.3%	89.3%	> 12.1%	–	Cc1ccc(-c2ccc3ncc(S(=O)(=O)n4ncc5ncc(-c6cnn(C)c6)cc54)n3c2)cc1F [Example 78, 1-{[6-(3-fluoro-4-methylphenyl)-imidazo[1,2-a]pyridine]-3-sulfonyl}-6-[(1-methyl)-4-pyrazolyl]-1-H-pyrazolo[4,3-b]pyridine]
–	30.5%	77.4%	> 83.1%	–	CC(C)Oc1ccc(-c2ccc3ncc(S(=O)(=O)n4ncc5ncc(-c6cnn(C)c6)cc54)n3c2)cc1 [Example 79]
–	47.5%	80.6%	> 75.3%	–	CN1CCN(C(=O)c2ccc(-c3ccc4ncc(S(=O)(=O)n5ncc6ncc(-c7cnn(C)c7)cc65)n4c3)cc2)CC1 [Example 80, 1-{[6-[4-(4-methylpiperazine-1-carbonyl)phenyl]-imidazo[1,2-a]pyridine]-3-sulfonyl}-6-[(1-methyl)-4-pyrazolyl]-1-H-pyrazolo[4,3-b]pyridine]
54.4%	63.8%	77.7%	> 78.5%	–	Cn1cc(-c2cnc3cnn(S(=O)(=O)c4cnc5ccc(-c6cnn(C7CCNCC7)c6)cn45)c3c2)cn1 [Example 82, 1-{[6-([1-(4-piperidinyl)]-4-pyrazolyl)-imidazo[1,2-a]pyridine]-3-sulfonyl}-6-[(1-methyl)-4-pyrazolyl]-1-H-pyrazolo[4,3-b]pyridine chloride]
–	44.4%	77.7%	> 79.8%	–	Cn1cc(-c2cnc3cnn(S(=O)(=O)c4cnc5ccc(-c6cccc(C(F)(F)F)c6)cn45)c3c2)cn1 [Example 83, 1-{[6-(3-trifluoromethylphenyl)-imidazo[1,2-a]pyridine]-3-sulfonyl}-6-[(1-methyl)-4-pyrazolyl]-1-H-pyrazolo[4,3-b]pyridine]

Compound	inhibition at 0.1 µM [1]	inhibition at 1 µM [1]	inhibition at 10 µM [1]	inhibition at 10 µM [2]	IC50 [1]
CC(C)(C)OC(=O)N1CCC(n2cc(-c3cnc4cnn(S(=O)(=O)c5cnc6ncccn56)c4c3)cn2)CC1 [Example 52, 1-(imidazo[1,2-a]pyrimidine-3-sulfonyl)-6-{{1-[(1-t-butoxycarbonyl)-4-piperidinyl]}-4-pyrazolyl}-1-H-pyrazolo[4,3-b]pyridine]	24.5%	50.3%	54.5%	54.5%	–
CC(C)(C)OC(=O)N1CCC(n2cc(-c3cnc4cnn(S(=O)(=O)c5cnc6ccc(-c7cnn(C8CCN(C(=O)OC(C)(C)C)CC8)c7)nn56)c4c3)cn2)CC1 [Example 62, 1-{(6-{{1-[(1-t-butoxycarbonyl)-4-piperidinyl]}-4-pyrazolyl}-imidazo[1,2-b]pyridazine)-3-sulfonyl}-6-{{1-[(1-t-butoxycarbonyl)-4-piperidinyl]}-4-pyrazolyl}-1-H-pyrazolo[4,3-b]pyridine]	73.2%	73.2%	80%	62.6%	–
CC(C)(C)OC(=O)N1CCC(n2cc(-c3cnc4cnn(S(=O)(=O)c5cnc6ccc(-c7cnn(C8CCN(C(=O)OC(C)(C)C)CC8)c7)cn56)c4c3)cn2)CC1 [Example 68, 1-{(6-{{1-[(1-t-butoxycarbonyl)-4-piperidinyl]}-4-pyrazolyl}-imidazo[1,2-a]pyridine)-3-sulfonyl}-6-{{1-[(1-t-butoxycarbonyl)-4-piperidinyl]}-4-pyrazolyl}-1-H-pyrazolo[4,3-b]pyridine]	50.2%	55.8%	62%	69.8%	–
